Experimental data published in patent publication US4834964A, “Use of charged nitroxides as NMR image enhancing agents for CSF” (M.R.I., Inc., priority 1986, dated 1989).

Assays:
[1] = Stability/pharmacokinetics of nitroxide in the CSF of dogs (nitroxide concentration); assay type: in vivo; conditions: 20 umol/animal, dog, average of 4 studies
Procedure: (§1) Dogs (data is the average of 4 independent studies) under general anesthetic were injected with 2 ml of a 10 mM stock solution of 4-(N,N,N-dimethylethylamino)-2,2,6,6-tetramethylpiperidin-oxyl iodide in saline (0.9%) into the spinal cavity (3 cm below the head). At defined times, samples of CSF were removed from a catheter inserted at the point of injection. The samples were analyzed for nitroxide concentration and relaxation times. (A separate experiment determined that charged nitroxides are not bioreduced by CSF fluid. Therefore, the diminution in nitroxide concentration is attributed to active transport from the spinal cavity.) The data obtained are set forth in the table below.

[2] = T1 relaxation time of CSF after injection of nitroxide into spinal cavity of dogs; assay type: in vivo; set-up: T1 RELAXATION TIME: unit not given here; conditions: dog; for T1 RELAXATION TIME: average of 4 studies, time 0: 3.11
Procedure: as §1

[3] = NMR image enhancement with nitroxide (cranium and spinal column); assay type: in vivo; conditions: dog, 1.5 Tesla whole-body imager; 7, 21, 40, 60 and 90 min post injection, versus control images
Text: An anesthetized dog (ca. 15 kg) as described in Example 1, in a prone position with front and hind legs extended and the head supported by a pillow in the upright position, was inserted into a small animal coil of a whole-body NMR imager (General Electric 1.5 Teslar instrument). Images of two cross-sections of the cranium and four cross-sections of the spinal column at various points below the point of injection were obtained as controls. The dog was removed from the instrument, injected with the NMR image-enhancing agent as described in Example 1 and the above-described images again obtained at 7, 21, 40, 60 and 90 minutes post injection. […] Because the loss in image enhancement is due to CSF turnover rather than decomposition of the nitroxide or passive diffusion thereof across the spinal cord, this procedure can be employed to study turnover of the CSF.

[4] = U.S. Pat. No. 3,702,831; cited from earlier work
[5] = 5 min after 2 ml of 10 mM into spinal cavity
[6] = 10 min after 2 ml of 10 mM into spinal cavity
[7] = 20 min after 2 ml of 10 mM into spinal cavity
[8] = 30 min after 2 ml of 10 mM into spinal cavity
[9] = 45 min after 2 ml of 10 mM into spinal cavity
[10] = 60 min after 2 ml of 10 mM into spinal cavity
[11] = 75 min after 2 ml of 10 mM into spinal cavity
[12] = 90 min after 2 ml of 10 mM into spinal cavity
[13] = 150 min after 2 ml of 10 mM into spinal cavity

CC[N+](C)(C)C1CC(C)(C)N([O])C(C)(C)C1 [4-(N,N,N-dimethylethylamino)-2,2,6,6-tetramethylpiperidinoxyl iodide]
concentration at 5 min [1, 5]: 3800 µM
concentration at 10 min [1, 6]: 3300 µM
concentration at 20 min [1, 7]: 2200 µM
concentration at 0.5 h [1, 8]: 2000 µM
concentration at 0.75 h [1, 9]: 1000 µM
concentration at 1 h [1, 10]: 720 µM
concentration at 1.25 h [1, 11]: 450 µM
concentration at 1.5 h [1, 12]: 220 µM
concentration at 1.75 h ([1]; 105 min after 2 ml of 10 mM into spinal cavity): 70 µM
concentration at 2.5 h [1, 13]: 30 µM
T1 RELAXATION TIME [2, 5]: 0.904
T1 RELAXATION TIME [2, 6]: 1.147
T1 RELAXATION TIME [2, 7]: 1.751
T1 RELAXATION TIME [2, 8]: 1.942
T1 RELAXATION TIME [2, 9]: 2.439
T1 RELAXATION TIME [2, 10]: 2.533
T1 RELAXATION TIME [2, 11]: 2.546
T1 RELAXATION TIME [2, 12]: 2.782
T1 RELAXATION TIME [2, 13]: 2.958
T1 relaxation time, sufficiency for enhanced NMR image ([2]; 150 min after injection (footnote)): insufficient to obtain an enhanced NMR image
NMR image of CSF in spinal column [3]: the CSF fluid in the spinal column was clearly imaged and produced a clear anatomical profile of the spinal column in each image, including the cranial sections and all of the 90 minute images

CC(C)(C)N([O])C(C)(C)C [di-tert-butylnitroxide]
in vivo elimination [4]: rapidly eliminated in vivo
